# Reference: BindingDB's records for patent US20250313535 (Dice Molecules Sv, 2025)
# Target: Integrin alpha-4/beta-7 (Homo sapiens, UniProt P13612+P26010)
# Test: Inhibition of α4β7 and α4β1 Integrins
# Procedure: MAdCAM (R&D Systems, 0.1 ug) was diluted in 50 μL PBS, added to each well of an opaque ELISA plate (Thermo), and incubated overnight at 4° C. Coated plates were washed once with PBS and then blocked with 200 μL of assay buffer (10 mM HEPES, 150 mM NaCl, 1 mM MnCl2, 0.1 mM CaCl2), 1% BSA) for 1 hour at 37° C. and 5% CO2. After incubation, buffer was aspirated from the plates and 50 μL of fresh assay buffer is added. Compounds were added by a compouns dispenser (Tecan) and DMSO concentration was normalized to 1% across each plate. 50 μL of RPMI-8866 cells (2×10^6 per mL) were added to each well and the plates were incubated for 1 hour at 37° C. and 5% CO2. After incubation, plates were allowed to cool to RT for 10 minutes before being washed four times in assay buffer by an automated plate washer (BioTek). After washing, 100 μL of a 1:1 mixture of assay buffer and CellTiter GLO 2.0 reagent (Promega) were added to each well. Plates were mixed for 2 minutes at 1000 rpm and then allowed to incubate an additional 10 minutes before reading out luminescence on a Tecan Spark plate reader. Raw data was converted to percent inhibition based on DMSO only and control compound wells, and curves were analyzed by 4-parameter fit within Dotmatics software.
# Chain of Integrin alpha-4/beta-7 (P13612 whole entry): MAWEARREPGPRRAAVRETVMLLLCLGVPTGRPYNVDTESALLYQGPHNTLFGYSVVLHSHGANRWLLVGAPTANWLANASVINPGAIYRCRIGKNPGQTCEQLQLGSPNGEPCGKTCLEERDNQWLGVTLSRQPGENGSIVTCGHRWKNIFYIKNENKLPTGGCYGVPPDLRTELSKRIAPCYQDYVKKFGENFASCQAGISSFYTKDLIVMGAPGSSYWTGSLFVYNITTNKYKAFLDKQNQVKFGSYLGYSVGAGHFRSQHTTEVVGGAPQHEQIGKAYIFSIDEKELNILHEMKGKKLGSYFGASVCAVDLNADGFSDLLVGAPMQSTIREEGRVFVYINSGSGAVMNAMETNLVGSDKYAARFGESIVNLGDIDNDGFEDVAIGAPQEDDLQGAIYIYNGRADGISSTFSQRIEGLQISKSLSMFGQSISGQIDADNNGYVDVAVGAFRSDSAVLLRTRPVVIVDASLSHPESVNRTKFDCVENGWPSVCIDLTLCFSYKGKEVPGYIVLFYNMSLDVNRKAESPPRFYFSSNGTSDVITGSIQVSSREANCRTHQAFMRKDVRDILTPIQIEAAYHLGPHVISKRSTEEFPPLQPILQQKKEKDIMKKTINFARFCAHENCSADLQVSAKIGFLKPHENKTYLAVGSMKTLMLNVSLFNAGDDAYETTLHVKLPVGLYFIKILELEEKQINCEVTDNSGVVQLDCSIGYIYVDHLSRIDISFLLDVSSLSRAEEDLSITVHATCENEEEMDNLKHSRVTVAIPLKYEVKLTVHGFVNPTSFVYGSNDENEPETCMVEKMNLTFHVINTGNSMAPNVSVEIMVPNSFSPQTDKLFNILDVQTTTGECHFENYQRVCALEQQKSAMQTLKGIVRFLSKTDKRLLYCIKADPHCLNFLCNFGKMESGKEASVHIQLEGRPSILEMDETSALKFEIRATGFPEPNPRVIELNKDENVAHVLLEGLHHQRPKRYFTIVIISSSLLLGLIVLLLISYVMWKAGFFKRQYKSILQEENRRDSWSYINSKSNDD
# Chain of Integrin alpha-4/beta-7 (P26010 whole entry): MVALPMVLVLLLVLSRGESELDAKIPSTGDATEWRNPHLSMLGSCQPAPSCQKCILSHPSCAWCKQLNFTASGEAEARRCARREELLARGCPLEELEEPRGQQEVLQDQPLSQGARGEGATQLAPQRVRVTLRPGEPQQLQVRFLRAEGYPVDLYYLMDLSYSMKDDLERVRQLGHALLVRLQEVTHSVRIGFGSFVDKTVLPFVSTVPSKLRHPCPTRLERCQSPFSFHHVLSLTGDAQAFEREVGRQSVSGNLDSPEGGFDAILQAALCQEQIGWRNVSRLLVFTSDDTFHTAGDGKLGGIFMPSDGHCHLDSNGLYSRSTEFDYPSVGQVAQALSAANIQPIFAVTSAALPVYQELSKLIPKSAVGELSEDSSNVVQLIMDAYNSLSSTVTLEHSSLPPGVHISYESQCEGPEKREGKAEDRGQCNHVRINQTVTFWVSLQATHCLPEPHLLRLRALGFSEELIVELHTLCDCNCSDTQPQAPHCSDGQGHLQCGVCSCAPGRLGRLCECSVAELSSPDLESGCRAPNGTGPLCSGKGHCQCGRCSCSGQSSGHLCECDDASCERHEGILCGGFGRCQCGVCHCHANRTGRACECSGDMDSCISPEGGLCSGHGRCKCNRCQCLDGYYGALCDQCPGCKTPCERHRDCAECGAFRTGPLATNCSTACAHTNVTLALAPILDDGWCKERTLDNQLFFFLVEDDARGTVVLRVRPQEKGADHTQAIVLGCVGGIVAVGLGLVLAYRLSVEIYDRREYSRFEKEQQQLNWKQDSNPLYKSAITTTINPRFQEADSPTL
row,SMILES,IC50
1,"Cn1ccc(C(F)(F)F)c(-c2nccc3c(C[C@H](NC(=O)c4c(F)cc(N(CC(F)(F)F)CC(F)(F)F)cc4F)C(=O)O)cccc23)c1=O [US20250313535, Compound 237]",< 10 nM
2,"Cn1c(=O)c(-c2cccc3c(C[C@H](NC(=O)c4c(F)cc(NC5CCC(F)(F)C5)cc4F)C(=O)O)cccc23)c(C(F)(F)F)c2ccccc21 (some centres not stated) [US20250313535, Compound 386]",> 100 nM
